{"source": "paper PMC8330795", "about": "“In silico identification and experimental validation of cellular uptake by a new cell penetrating peptide P1 derived from MARCKS” (Drug Delivery, 2021)", "key": {"HSC-T6 cells [1]": {"test_system": "HSC-T6 cells", "assay": "Cellular uptake of FITC-labeled peptide, fluorescence microscopy and lysate fluorescence", "type": "cell-based, rat", "protocol": "Cells were suspended in regular culture media and seeded on coverslip in a 24-well plate at a concentration of 1.6 × 10^4 cells/well. Rinsing with PBS twice after 24 h of incubation for cell attachment, FITC-labeled peptides at indicated concentrations were added with 0.5 ml serum-free media/well and incubated for 1 hour at 37 °C. After incubation, the cells were washed with PBS at least three times. 4′,6-diamidino-2-phenylindole (DAPI) was added to each well and incubated for 5 min after fixation with 4% paraformaldehyde (PFA) in PBS. The cells were washed with PBS, mounted on the slide, and observed by fluorescence microscopy (Nikon, Tokyo, Japan). To analyze the internalization efficiency of CPP, the fluorescence of cell lysates and supernatants was measured using TECAN Safire multi-well reader with excitation and emission wavelengths set to 485 nm and 535 nm, following the protocol published (Wang et al., [2010]; Ma et al., [2015]; Wang et al., [2016]; [2016]; Zhou et al., [2017]; Shao et al., [2016]; Zhang et al., [2019]; Geng et al., [2020]). After the cell incubation with peptide and washing step described above, cells were lysed with 300 µl lysis buffer (0.1 M NaOH) for 10 minutes and centrifuged at 800 rpm for 5 minutes. Fluorescence in the 50 µl supernatant transferred to a 96-well plate was monitored by the plate-reader spectrophotometer (Tecan, Mannedorf, Switzerland). The amount of FITC-labeled peptides internalized were normalized by protein concentration, and the experiments indicated were repeated at least three times."}, "MCF7": {"test_system": "MCF7", "assay": "Cellular uptake of FITC-labeled peptide, fluorescence microscopy and lysate fluorescence", "type": "cell-based, human", "conditions": "FITC-labeled peptide 5 μM; MCF7 compared with other cell lines", "protocol": "(§1) Cells were suspended in regular culture media and seeded on coverslip in a 24-well plate at a concentration of 1.6 × 10^4 cells/well. Rinsing with PBS twice after 24 h of incubation for cell attachment, FITC-labeled peptides at indicated concentrations were added with 0.5 ml serum-free media/well and incubated for 1 hour at 37 °C. After incubation, the cells were washed with PBS at least three times. 4′,6-diamidino-2-phenylindole (DAPI) was added to each well and incubated for 5 min after fixation with 4% paraformaldehyde (PFA) in PBS. The cells were washed with PBS, mounted on the slide, and observed by fluorescence microscopy (Nikon, Tokyo, Japan).\n(§2) To analyze the internalization efficiency of CPP, the fluorescence of cell lysates and supernatants was measured using TECAN Safire multi-well reader with excitation and emission wavelengths set to 485 nm and 535 nm, following the protocol published (Wang et al., [2010]; Ma et al., [2015]; Wang et al., [2016]; [2016]; Zhou et al., [2017]; Shao et al., [2016]; Zhang et al., [2019]; Geng et al., [2020]). After the cell incubation with peptide and washing step described above, cells were lysed with 300 µl lysis buffer (0.1 M NaOH) for 10 minutes and centrifuged at 800 rpm for 5 minutes. Fluorescence in the 50 µl supernatant transferred to a 96-well plate was monitored by the plate-reader spectrophotometer (Tecan, Mannedorf, Switzerland). […]"}, "BV2 cells": {"test_system": "BV2 cells", "assay": "Cellular uptake of FITC-labeled peptide, fluorescence microscopy and lysate fluorescence", "type": "cell-based, mouse", "conditions": "FITC-labeled peptide 5 μM", "protocol": "as §1, §2"}, "Mouse erythrocytes": {"test_system": "Mouse erythrocytes", "assay": "Hemolysis assay", "type": "cell-based", "conditions": "mouse erythrocytes in PBS, 37 °C, 2 h, absorbance 450 nm; 0.1% Triton X-100 positive control", "protocol": "Mouse erythrocytes free of plasma components were separated by centrifugation at 1000 rpm for 5 minutes and washed three times with PBS. The washed mouse erythrocytes were resuspended in PBS and treated with indicated concentrations of peptides at 37 °C for 2 h. Hemolysis was examined by measuring the absorbance of supernatant at the wavelength of 450 nm, and 0.1% Triton X-100 was used as a positive control."}, "BV2": {"test_system": "BV2", "assay": "Peptide-mediated transfection of pdsRed plasmid, RFP expression", "type": "cell-based, mouse", "conditions": "BV2, 80:1 group", "protocol": "HSC-T6, BV2 and MCF7 cells (4 × 10^4 cells/well) were seeded onto 24-well plates 24 h before the experiment. Cells were incubated with CPP-P1/pDNA complexes at indicated N/P ratios for 4 hrs in serum-free media, and then were incubated for 24 h or 48 h after adding media with 10% serum. Live cell imaging under fluorescence microscope was carried out to estimate peptide-based transfection efficiency. Cells transfected with TurboFectin (OriGene, Beijing, China) were used as positive transfection reagent."}, "HSC-T6 cells [2]": {"test_system": "HSC-T6 cells", "description": "Cytotoxicity was measured using MTT assay. Grown cells were inoculated for 24 h at a density of 10000 cells/well in 96-well plates. After washing with PBS, the indicated concentrations of peptides were added, following by further incubation for 24 h or 48 h. After at least two-times washing, 5 mg/ml MTT dissolved in PBS with serum-free media was added into plates for another 4 h incubation. Dimethyl sulfoxide (DMSO) was added into plates and incubated at 37 °C for 15–30 minutes to dissolve the formazan crystals. The absorbance of aliquot from each well was measured at 490 nm using a Multiskan Spectrum (Thermo Fisher Scientific, Waltham, MA, USA) microplate reader. Experiments were repeated three times."}}, "data": [{"sequence": "KKKKKRFSFKKSFKLSGFSFKKNKK [P1]", "values": [{"measurement": "penetration efficiency with chloroquine (CQ)", "setting": "HSC-T6 cells [1]; 100 μM CQ, fluorescent quantification, Figure S6, cell line not stated at place", "value": "no obvious effect"}, {"measurement": "fluorescence of peptide versus incubation time", "setting": "HSC-T6 cells [1]; FITC-labeled peptide 5 μM, after 1 hour treatment, longer incubation times, images and fluorescence quantification", "value": "significantly decreased as incubation time increased"}, {"measurement": "penetration property versus peptide concentration", "setting": "HSC-T6 cells [1]; FITC-labeled peptide, 1 hour, 37 °C, serum-free media, fluorescence normalized with protein concentration", "value": "concentration dependent"}, {"measurement": "penetration efficiency with sucrose", "setting": "HSC-T6 cells [1]; peptide 5 μM with 0.3 M and 0.6 M sucrose, cell line not stated at place", "value": "inhibited"}, {"measurement": "penetration efficiency with penetration enhancer DMSO", "setting": "HSC-T6 cells [1]; peptide 5 μM with 5% DMSO (2.5% and 5% tested), cell line not stated at place", "value": "enhanced"}, {"measurement": "penetration efficiency at low temperature", "setting": "HSC-T6 cells [1]; peptide 5 μM, 25 °C and 4 °C compared to 37 °C", "value": "significantly inhibited"}, {"measurement": "uptake inhibited by endocytosis inhibitors", "setting": "HSC-T6 cells [1]; peptide 5 μM, same inhibitor list, inhibitor giving this value not specified", "value": "about 20%"}, {"measurement": "penetration efficiency compared with other published CPPs", "setting": "HSC-T6 cells [1]; peptides 5 μM, FITC-labeled, versus MT23 and TAT, cell line not stated at place", "value": "higher penetration efficiency than MT23 and TAT"}, {"measurement": "penetration efficiency in different cell lines", "setting": "MCF7", "value": "higher penetration efficiency in MCF7"}, {"measurement": "penetration into hard-to-translocate cells", "setting": "BV2 cells", "value": "could enter into hard-to-translocate BV2 cells in significant amount"}, {"measurement": "hemolysis of red blood cells", "setting": "Mouse erythrocytes", "value": "minimally perturbed"}, {"measurement": "RFP expression at N/P 80:1", "setting": "BV2", "value": "could not find RFP positive cells"}, {"measurement": "cytotoxicity, MTT assay", "setting": "HSC-T6 cells [2]", "value": "did not find significant cytotoxicity"}]}]}
